Data from patent US6579693B1, “Genetically engineered yeast strains” (Aventis Pharma S.A., priority 1995, dated 2003).

T1: P450 cytochrome 1A1 (Homo sapiens, UniProt P04798)
T1 construct: made in house; host or cells: Saccharomyces cerevisiae W303-derived strains, e.g. W(R, LHb5); microsomal fractions
T1 sequence (P04798 1-512): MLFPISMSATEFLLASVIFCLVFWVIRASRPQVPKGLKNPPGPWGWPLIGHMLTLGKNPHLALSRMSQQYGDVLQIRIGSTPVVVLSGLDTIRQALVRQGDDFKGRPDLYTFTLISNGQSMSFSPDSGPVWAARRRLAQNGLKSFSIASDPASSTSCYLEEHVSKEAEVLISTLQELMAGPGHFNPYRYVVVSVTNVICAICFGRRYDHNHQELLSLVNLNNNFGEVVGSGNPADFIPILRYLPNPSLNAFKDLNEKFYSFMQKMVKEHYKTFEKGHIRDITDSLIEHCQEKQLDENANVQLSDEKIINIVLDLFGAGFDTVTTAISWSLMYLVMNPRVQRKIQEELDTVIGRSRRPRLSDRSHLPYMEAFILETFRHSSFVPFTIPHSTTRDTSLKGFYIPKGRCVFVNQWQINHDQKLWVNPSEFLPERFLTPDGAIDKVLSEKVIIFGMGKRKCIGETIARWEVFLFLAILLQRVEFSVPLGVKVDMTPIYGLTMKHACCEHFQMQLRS

B1: rabbit cytochrome b5: purified rabbit cytochrome b5 added in excess to microsomal fractions (protein, UniProt P00169 2-134, looked up)
Cytochrome b5: AAQSDKDVKYYTLEEIKKHNHSKSTWLILHHKVYDLTKFLEEHPGGEEVLREQAGGDATENFEDVGHSTDARELSKTFIIGELHPDDRSKLSKPMETLITTVDSNSSWWTNWVIPAISALIVALMYRLYMADD

What was measured:
[1] = test system: W(Ghr, ΔB) clones; test: resistance of yeast clones to ketoconazole; format: cell-based, S. cerevisiae; conditions: three W(Ghr, ΔB) clones, human reductase under GAPDH promoter
Procedure: The second selection: the resistance of the W(Ghr, ΔB) clones to ketoconazole was evaluated (Patent No. WO94/01564) in order to verify the activity of the human reductase expressed under the control of the GAPDH promoter. Three different clones are resistant to 20 mg of ketoconazole/ml, while the W(hR) strain, in which the human reductase is expressed under the control of the GAL10-CYC1 promoter, is only resistant to from 1 to 5 mg/ml under the same conditions.

[2] = target: T1, P450 cytochrome 1A1; test: EROD activity test on microsomes (O-deethylation of 7-ethoxyresorufin); format: biochemical; conditions: microsomes of strain W(R, LHb5), rabbit cytochrome b5 added
Procedure: The P450 cytochrome 1A1 catalyses the O-deethylation of 7-ethoxyresorufin. The product of the reaction, i.e. resorufin (7-hydroxyphenoxazine), fluoresces at 586 nm after excitation at 530 nm. The quantity of resorufin formed per unit time corresponds to the rate of resorufin accumulation.
The incubation mixture comprises:
2 μl of a microsomal suspension (between 20 and 50 μg of microsomal protein) in 1 ml of pH 7.4 TE buffer containing 50 μM NADPH and 2.5 μM 7-ethoxyresorufin. In order to determin the effect of rabbit cytochrome b5 on catalytic efficacy, the microsomal fractions are subjected to prior incubation in the cold in the presence of an excess of purified cytochrome.

| Molecule | ketoconazole concentration to which the clones are resistant [1] [mg/mL] | turnover [2] |
| --- | --- | --- |
| CC(=O)N1CCN(c2ccc(OCC3COC(Cn4ccnc4)(c4ccc(Cl)cc4Cl)O3)cc2)CC1 (centres unmarked) [ketoconazole] | 20 |  |
| B1 |  | 27 pmol of metabolite/pmol of cytochrome P450 per min |
